We go through two compounds from patent US9623065B2, “Kind of polygonum capitatum extract, its application and a preparation containing the polygonum capitatum extract” (Zhejiang Sanzheng Biotechnology Co., Ltd., priority 2013, dated 2017).

Experiment [1] relates to alloxan hyperglycemia model mice. Put plainly: Blood glucose of alloxan hyperglycemia model mice, comparison of extraction methods (Test Case 4). The settings on record: dose 0.5 mg, fasting. It counts as in vivo, KM mice.
Experimental: Take 460 KM mice, with a weight of (20±2) g, half male and half female, let them to adapt to the environment for 7 days. Randomly select 6 male mice and 6 female mice as the blank control group, keep them fasted but water is supplied to them for 18 hours, use the physiological saline to prepare the 1.1% alloxan, and store it in an ice water bath. Carry out the intraperitoneal injection according to the ratio of 110 mg/kg, the control group is injected with the isodose physiological saline, let them eat after 1 h recovery. Use the same modeling method in the second day. 3 days later (72 h, normal diet), then fasting 12 hours, and then cut their tails to take a few drops of blood, and then fasting blood glucose is measured with glucose oxidase method, the mice with the blood glucose value greater than 11.1 mmol/L are the mice that successfully modeled.
Among the 460 KM mice, 12 of them belong to the blank control group, the remaining mice are used to modeling. After the modeling the mice with the blood glucose values measured greater than 11.1 mmol/L. In the design process each experimental group has 12 mice.
Take the model mice, randomly divide then into 16 groups, namely the water extraction (high, medium and low) dose group, the alcohol extraction (high, medium and low) dose group, the water and alcohol extraction (high, medium and low) dose group, the modeling group, positive group and blank control group (normal mice), please refer to Table 1.
Use surgical scissors to cut 2-3 mm of a mouse tail, press the tail to take a few drops of blood and place in the EP tube, first add 12 μL 15 g/L bipotassium EDTA solution, high speed centrifuge it (10000 r/min) for 5 min. Wait till the blood is stratified, take the upper layer serum 10 μL, plus 30 μL physiological saline, shake it evenly; and take 10 μL the dilute serum and put into a EP tube, add 1 mL glucose (Glu) oxidase, shake it evenly, keep at 37° C. for 15 min, the sample (U) is to be measured. Then take the physiological saline and calibrator (c) 10 μL respectively, add 1 mL glucose oxidase, shake evenly, keep at 37° C. for 15 min, determine the absorbance (A) with 505 nm wavelength after adjusting the blank tube to zero. […]
(§1) This experiment adopts the GOD-POD method for determination of serum glucose concentration, the principle of this method is POD in serum glucose is oxidized into D-gluconic acid in the presence of GOD, and generate H2O2; the latter and 4-amino antipyrine and phenol form red benzophenone imine under the effect of peroxidase (POD) benzophenone imine, the depth of the color of the ketone compounds is directly proportional to the content of glucose. Determine the absorbance values of the standard tube and the sample tube respectively, and then calculate the content of glucose.
For experiment [2] the test system is unchanged. Put plainly: Efficacy test of tablet, oral liquid, capsule, granules in alloxan hyperglycemia model mice (Test Cases 5-8). It counts as in vivo, KM mice. The settings on record: dose 0.5 mg.
Experimental: Take 80 KM mice, with a body weight of (20+2) g, half male and half female, and let them to adapt to the environment for 7 days. Randomly select 6 male mice and female mice as the blank control group, fasted and supplied with water for 18 h. Prepare 1.1% alloxan with physiological saline, and keep it in ice water bath. Carry out intraperitoneal injection according to a dose of 110 mg/kg, the mice of the control group are to be injected with physiological saline, and then fast them 12 hours, use the same modeling method in the second day. 3 days later (72 h, restore to normal diet), then fast 12 h, and then cut the tail to take a few drops of blood. The fasting blood glucose was measured with glucose oxidase method. The mice that have a blood glucose value greater than 11.1 mmol/L are mice that have been successfully modeled.
Among the 80 KM mice, 12 are as the blank control group, the remaining mice are used to modeling. After modeling, find the mice with the blood glucose values measured more than 11.1 mmol/L. In the experiment design process each group is set with 12 mice, the number of female mice are larger in the experimental results, so the number of female mice designed a dose is 6-8 only (8 with only statistical significance), the tails of some of the male model mice may be damaged, which is not conducive to the blood sampling in the next step, therefore it is not designed in this experimental group.
Use surgical scissors to cut 2-3 mm of a mouse tail, press the tail to take a few drops of blood and place in the EP tube, first add 12 μL 15 g/L bi-potassium EDTA solution, high speed centrifuge it (10000 r/min) for 5 min. Wait till the blood is stratified, take the upper layer serum 10 μL, plus 30 μL physiological saline, shake it evenly; and take 10 μL the dilute serum and put into a EP tube, add 1 mL glucose (Glu) oxidase, shake evenly, keep at 37° C. for 15 min, the sample (U) is to be measured. Then take the physiological saline and calibrator (c) 10 μL respectively, add 1 mL glucose oxidase, shake it evenly, keep at 37° C. for 15 min, determine the absorbance (A) with 505 nm wavelength after adjusting the blank tube to zero. Sample Glu (mmol/L)=Au/Ac*Cc
Determine the fasting blood glucose values corresponding to the administration of 7 d, 14 d, 21 d and 28 d after the success of modeling (fasted but water is supplied for 12 h).
as §1
Experiment [3] relates to 3T3-L1 adipocyte IR model. Put plainly: Influence of glucose utilization on the 3T3-L1 adipocyte insulin resistance (IR) model. It counts as cell-based, mouse. The method, then: 3T3-L1 mouse embryonic fibroblast cells, are derived from the Institute of Life Science of Chinese Academy of Sciences. Plant the 3T3-L1 preadipocytes into the 25 cm2 cell culture plate, add 6 ml normal culture medium, keep it at culture conditions of 37° C. and 5% CO2, change liquid in the next day. Pass or store it in freezing conditions after the 80% cell fused.
Inoculate the 3T3-L1 preadipocytes at the density of 5×10^3 in a 24-hole culture plate, wait until the cells grow to contact inhibition, replace the cell culture medium with differentiation liquid A (0.5 mmol/L IBMX, 0.1 umol/L DEX, 10 mg/L INS) and culture them for 48 h, then replace with the induction differentiation liquid (10 mg/L) to continuously culture for 48 h B, change the normal culture medium to continue culturing, and change the liquid once every 2 days, 90% of the above induced differentiation cells will have a mature phenotype after 6-8 days.
After counting the 3T3-L1 cells in logarithmic growth phase, inoculate them at the density of 5*10^3 each hole onto 24-hole culture plate, then put the culture plate into the CO2 incubator, under the conditions of a temperature of 37° C., 5% CO2 and saturated humidity, culture them to growth inhibition, induction differentiation to mature adipocytes. Add the following processing factors: • The control group shall be continued with their normal culture medium (DMEM high glucose culture liquid containing 10% FBS) • The model group shall be given 1 umol DEX normal culture medium; • Other cells shall be used in each drug group experiment
After counting the 3T3-L1 cell in logarithmic growth phase, inoculate each hole with density of 5×10^3 cells in 24-hole culture plate. According to the IR models preparation method of 2.3, divide the mature 3T3-L1 adipocytes into a normal culture group and model group, the model group can also be divided into a model control group and each drug group. The model group shall be given 1 umol DEX to react for 48 h. After the models are built, administer the drug as per the experimental groups and the concentration of drug, in 3 parallel plates. In 24 h, 48 h the cell morphologies shall be observed and take the supernatant to be tested on the semi automatic biochemical instrument, determine the glucose (GLU) content in the culture solution according to the descriptions of the kit.

Structures are written as SMILES.

Take `C[C@H]1O[C@H](O[C@H]2[C@H](O)[C@@H](O)[C@@H](O[C@H]3[C@H](O)[C@@H](O)C(O)O[C@@H]3CO)O[C@@H]2CO)[C@H](O)[C@@H](O)[C@@H]1N[C@H]1C=C(CO)[C@@H](O)[C@H](O)[C@H]1O` (stereo partly shown) [Acarbose]: the “Blood glucose level 7 d” value in experiment [1] (7 d) is 19.23 ± 7.54 mmol/L; in experiment [2] (Table 8) it was 19.23 ± 7.54 mmol/L; in experiment [2] (Table 9), 19.23 ± 7.54 mmol/L; in experiment [2] (Table 10, in mmol/L), 19.23 ± 7.54; in experiment [2] (Table 11, in mmol/L), 19.23 ± 7.54. Moreover, the “Blood glucose level 14 d” value in experiment [1] (14 d) was 18.00 ± 6.99 mmol/L; in experiment [2] (Table 8), 18.00 ± 6.99 mmol/L; in experiment [2] (Table 9), 18.00 ± 6.99 mmol/L; in experiment [2] (Table 10, in mmol/L), 18.00 ± 6.99; in experiment [2] (Table 11, in mmol/L), 18.00 ± 6.99. For the same compound, the “Blood glucose level 21 d” value in experiment [1] (21 d) was 19.99 ± 6.69 mmol/L; in experiment [2] (Table 8), 19.99 ± 6.69 mmol/L; in experiment [2] (Table 9), 19.99 ± 6.69 mmol/L; in experiment [2] (Table 10, in mmol/L), 19.99 ± 6.69; in experiment [2] (Table 11, in mmol/L), 19.99 ± 6.69. Further, the “Blood glucose level 28 d” value was 22.81 ± 7.72 mmol/L in experiment [1] (28 d); 22.81 ± 7.72 mmol/L in experiment [2] (Table 8); 22.81 ± 7.72 mmol/L in experiment [2] (Table 9); 22.81 ± 7.72 in experiment [2] (Table 10, in mmol/L); 22.81 ± 7.72 in experiment [2] (Table 11, in mmol/L).
`CN(CCOc1ccc(CC2SC(=O)NC2=O)cc1)c1ccccn1` (stereo not shown) [ROG]: the “Average 24 h GLU content” value in experiment [3] (3.125 ug/ml, first series) worked out at 22.24 mmol/L; in experiment [3] (12.5 ug/ml, first series) it was 22.04 mmol/L; in experiment [3] (50 ug/ml, culture supernatant, first series (model control 23.08)) it was 21.84 mmol/L; in experiment [3] (100 ug/ml, second series (model control 27.72)) it was 25.38 mmol/L. Further, the “Average 48 h GLU content” value in experiment [3] (3.125 ug/ml, first series) came out at 20.46 mmol/L; in experiment [3] (12.5 ug/ml, first series), 21.67 mmol/L; in experiment [3] (50 ug/ml, culture supernatant, first series (model control 22.18)), 20.53 mmol/L; in experiment [3] (100 ug/ml, second series (model control 26.27)) it was 24.64 mmol/L.
